# From paper PMC6030159 (Scientific Reports, 2018)
# pIC50, pKd: −log10 of the molar value. Entries after “also recorded” stand apart in the source; their conditions may differ.
# Columns and labels:
# [1] = system: MYCN-amplified neuroblastoma cells (IMR-32, Kelly, SK-N-DZ); experiment: Resazurin growth assay, MYCN-amplified neuroblastoma cell lines; assay type: cell-based, human; settings: MYCMI-6 6.25 μM, MYCMI-11 and MYCMI-14 25 μM, 10058-F4 64 μM, 48 hours
# Excerpt: HEK293A, MCF7, MDA-MB231, SK-N-F1, SK-N-RA, SK-N-AS, COS-7, HeLa, BJ cells, and Rat1 fibroblasts TGR-1 (wt), HO15.19 (MYC knockout) and HOmyc3 (MYC reconstituted HO15.19) were maintained in DMEM. The neuroblastoma cell lines Kelly, IMR-32 and SK-N-DZ, and the Burkitt’s lymphoma cell lines Mutu, Daudi and ST486 were kept in RPMI. SK-N-BE(2) cells were maintained in a 1:1 mixture of EMEM and F12 media, supplemented with 1% non-essential amino acid solution (NEAA) and 0.5% Glutamine. U2OS-MYC-ER cell lines were cultured in phenol-red free DMEM and treated with 100 nM 4-hydroxytamoxifen (HOT) (Sigma-Aldrich) to activate MYC-ER. IMR-90 was maintained in MEM. All media were supplemented with 10% FBS and 1% penicillin and streptomycin and kept at 37 °C and 5% CO2. All cell lines were mycoplasma free. Cell proliferation assays were performed as described in Supplementary Information. […]
# Cell proliferation assays. Cell growth and viability was estimated in triplicates with WST-1
# (Roche) or Resazurin sodium salt (Sigma-Aldrich) assays in medium at 37°C and 5% CO 2 for
# 2 hours after which absorbance or fluorescence, respectively, was measured with an Omega
# Fluostar (BMG Labtech) in a 96 well plate format. […]
# MYC = molecular target: MYC; design: method as in PMID 24859015; settings: read-out: KD for MYC by SPR; cited from earlier work
# [2] = system: MYC-family protein levels; design: method as in PMID 28976731, PMID 24859015, PMID 23733953; settings: cited from earlier work
# [3] = system: tumor cell growth in vivo; settings: cited from earlier work
# MYCbHLHZip:MAXbHLHZip = molecular target: T1, MYCbHLHZip:MAXbHLHZip (Homo sapiens, UniProt P01106); experiment: SPR MYC:MAX heterodimer formation assay; assay type: binding; settings: KJ-Pyr-9 up to 10 μM
# T1 construct: 6xHis (N); made in house; host or cells: E. coli BL21 (DE3), pET28a
# T1 sequence (P01106 367-447 limits assumed): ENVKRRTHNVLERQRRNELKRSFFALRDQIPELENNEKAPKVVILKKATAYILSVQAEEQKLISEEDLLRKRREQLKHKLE
# Protocol: The SPR method is a highly sensitive assay to determine the affinity between protein and ligand and to measure the kinetics of the interaction. In the SPR MYC:MAX interaction assay, MAXbHLHZip was covalently attached onto a sensor chip and MYCbHLHZip pre-mixed with compound was injected over the surface and thereafter allowed to dissociate.
# The SPR experiments were performed at 25 °C using a Biacore T200 (GE Healthcare) instrument kindly provided by SciLifeLab Solna. An amino coupling procedure was used to immobilize protein on a CM5 sensor chip (GE Healthcare). Sensorgrams were generated by subtraction of the reference (blank immobilized) surface. All details will be described in Castell et al. (manuscript in preparation). In general, for the MYC:MAX interaction assay, 200–500 RU of MAXbHLHZip was immobilized and 100 nM MYCbHLHZip pre-incubated with compound in PBS supplemented with 0.05% Tween-20 and 1% DMSO was injected with a flow rate of 30 µl/min and allowed to dissociate. MAX was regenerated by injection of PBS buffer supplemented with Urea.
# MYC bHLHZip = molecular target: T2, MYC bHLHZip (Homo sapiens, UniProt P01106); experiment: SPR direct binding to immobilized MYC; settings: up to 8 μM
# T2 construct: 6xHis (N); made in house; host or cells: E. coli BL21 (DE3), pET28a; purified in denaturing conditions
# T2 sequence (P01106 367-447 limits assumed): as above
# Protocol: Further, MYCMI-6 binding to MAX, MXD1 (MAD1) (Figs 4C and S5C and D), p53 (Fig. 4D), BSA (Suppl. Fig. S5E) and YFP (data not shown) were negligible. Binding to BCL-XL was only 10% of the theoretical maximum at 2 μM MYCMI-6 (Suppl. Fig. S5F).
# The MYC SPR assay was carried out as described above with MYCbHLHZip immobilized to a level of 800–1000 RU. For kinetic binding experiments, a Langmuir 1:1 binding event was applied using the Biacore T200 Evaluation Software 2.0 (GE Healthcare) to determine association (ka) and dissociation (kd) constants of the compound and to calculate affinity (KD) by the formula; KD = kd/ka. Binding responses from equilibrium binding experiments were plotted against compound concentration and KD values were determined at 50% of the theoretical Rmax with the formula Rmax = (MW analyte/MW ligand) × immobilized ligand level on the chip (RU) × stoichiometry (1:1). Same coupling method described above was used to immobilize the control proteins. MAX was immobilized to approximately 2000 RU, MAD to 600 RU, BSA to 1000 RU, p53 to 3000 RU and BCL-XL, to 500 RU.
# recombinant MYC:MAX:DNA = system: recombinant MYC:MAX:DNA; design: method as in PMID 28976731, PMID 25114221; settings: fluorescence polarization; read-out: IC50, MYC:MAX:DNA interaction; cited from earlier work
# MAX:MAX:DNA = system: MAX:MAX:DNA; design: method as in PMID 28976731, PMID 25114221; settings: fluorescence polarization; read-out: IC50, MAX:MAX:DNA interaction; cited from earlier work
# MAX = system: MAX; design: method as in PMID 25114221; settings: cited from earlier work
# MYC:MAX = system: T3, MYC:MAX; experiment: Gaussia luciferase complementation (GLuc) MYC:MAX; assay type: cell-based, human; settings: 25 μM, 17 hours, HEK293 cells
# T3 construct: fused to full length MYC (MYC-GLuc-C) and MAX (MAX-GLuc-N), respectively; expressed in transfected cells; host or cells: HEK293
# Protocol: The protein fragment complementation assay using the Gaussia luciferase has been described. 0.2–0.4 μg of each GLuc-construct (see Supplementary Information) together with 0.05–0.2 μg pCMV-Luc (Firefly luciferase) were transiently transfected into HEK293 or COS-7 cells in 6-well plates. 24 hours later cells were treated with compound (10–25 μM) or DMSO. After another 17 hours, the cells were harvested and lyzed in passive lysis buffer (Promega) supplemented with complete protease inhibitor (Roche). After 60 min incubation at room temperature 20 μM D-luciferin was added (substrate of Firefly luciferase) and luminescence was measured in a Lumat LB9501 (Berthold) or OmegaFluostar (BMG Labtech) luminometer. Directly after, Gaussia luciferase substrate Coelenterazine (Promega) was added to a final concentration of 20 μM in a mixture with “Stop n’ Glow” (Promega) and the luciferase activity was measured. The ratio between Gaussia and Firefly luciferase values were calculated and normalized to DMSO-treated control cells.
# endogenous MYC protein = experiment: Western blot of endogenous MYC in HeLa cells; assay type: cell-based; settings: 10 μM, 24 hours
# Protocol: These assays were performed essentially as described in[67],[68]. For further information on immunohistochemistry, and on primers and antibodies, see Supplementary Information.
compound,measurement,setting,value
CCc1ccc(/C=C2/SC(=S)NC2=O)cc1 [10058-F4],growth of MYCN-amplified versus MYCN-non-amplified neuroblastoma cell lines,[1],reduced growth of the MYCN-amplified cell lines significantly stronger than the MYCN-non-amplified cell lines
same,pKd,MYC,~4.40
same,effect on MYC-family protein levels,[2],down-regulate
same,"tumor cell growth in vivo, mouse tumor models",[3],Inhibition of tumor cell growth in vivo
NC(=O)c1ccc(-c2cc(-c3ccc([N+](=O)[O-])cc3)nc(-c3ccco3)c2)cc1 [KJ-Pyr-9],"effect on MYC:MAX formation (SPR), in words",MYCbHLHZip:MAXbHLHZip,no effect; also recorded: not affect the MYC:MAX interaction
same,"binding to immobilized MYC (SPR), in words",MYC bHLHZip,not detect any binding
same,pIC50,recombinant MYC:MAX:DNA,~5.00
same,pIC50,MAX:MAX:DNA,~4.52
same,"binding to MAX, BSI",MAX,not MAX
same,"tumor cell growth in vivo, mouse tumor models",[3],Inhibition of tumor cell growth in vivo
O=[N+]([O-])c1ccc(Nc2ccccc2-c2ccccc2)c2nonc12 [10074-G5],pKd,MYC,~4.49
same,effect on MYC-family protein levels,[2],down-regulate
CCN(CC)CC[n+]1ccc2c(C)c3[nH]c4ccccc4c3c(C)c2c1 [MYCMI-7],MYC:MAX GLuc activity,MYC:MAX,most potent
same,effect on endogenous MYC protein levels (western blot),endogenous MYC protein,reduced MYC protein expression
